Source: publication PMC11432087, “Hydrogen Sulfide-Releasing Carbonic Anhydrase Inhibitors Effectively Suppress Cancer Cell Growth” (International Journal of Molecular Sciences, 2024)
Read-outs that look alike come from different tables or passages of the source.

How the values were obtained:
[1] = Spectrophotometric methylene blue H2S release in phosphate buffer with or without thiols; details: 37 °C, with or without L-cysteine or glutathione
[2] = compound 150 µM, rat liver homogenate, 37 °C; cited from earlier work
hCA IX [3] = experiment: Stopped-flow CO2 hydrase inhibition assay, hCA IX; type: biochemical, human; details: ratio of KIs
Description: (§1) An Applied Photophysics stopped-flow instrument (Applied Photophysics Ltd, Leatherhead, UK) was used for assaying the CA-catalyzed CO2 hydration activity. Phenol red (at a concentration of 0.2 mM) was used as an indicator, working at the absorbance maximum of 557 nm, with 20 mM Hepes (pH 7.5) as a buffer and 20 mM Na2SO4 for maintaining constant the ionic strength, following the initial rates of the CA-catalyzed CO2 hydration reaction for a period of 10−100 s. The CO2 concentrations ranged from 1.7 to 17 mM for the determination of the kinetic parameters and inhibition constants. For each inhibitor, at least six traces of the initial 5−10% of the reaction were used for determining the initial velocity. The uncatalyzed rates were determined in the same manner and subtracted from the total observed rates. Stock solutions of inhibitor (0.1 mM) were prepared in distilled−deionized water and dilutions up to 0.01 nM were made thereafter with the assay buffer. Inhibitor and enzyme solutions were preincubated together for 15 min at room temperature before the assay to allow for the formation of the E−I complex. The inhibition constants were obtained by nonlinear least-squares methods using Prism 7 (GraphPad Software, La Jolla, CA, USA) and the Cheng−Prusoff equation and represent the mean of at least three different determinations. The enzyme concentrations were in the range of 3–11 nM. All hCA isoforms were recombinant ones obtained in-house.

hCA IX [4] = details: stopped-flow CO2 hydrase assay, mean of three assays; cited from earlier work
A549 [5] = experiment: MTT antiproliferative assay, A549; type: cell-based; details: Homo sapiens, normoxic conditions, 72 h
Description: The human triple-negative breast cancer cell line (MDA-MB-231), colon cancer cell line (HCT-116), and lung cancer cell line (A549) used in this study were obtained from the American Type Culture Collection (ATCC). These cell lines were cultured as monolayers in Dulbecco’s Modified Eagle’s Medium (DMEM) supplemented with 10% FBS, 2 mM l-glutamine, 100 U/mL penicillin, and 100 µg/mL streptomycin sulfate. […] The cells were sub-cultured using trypsin/EDTA solution, counted with a hemocytometer, and plated on 96-well plates (5000 cells/well), allowing them to form a semi-confluent monolayer overnight. […]. DMSO (100 µL/well) was then added to dissolve the formazan crystals with shaking for 10 min, after which the absorb absorbance was read at 590 nm against no-cell blanks using a FLuo Star Optima microplate reader (BMG technologies, Ortenberg, Germany). Cell proliferation was calculated by comparing the OD values of the DMSO control wells with those of the samples, represented as % proliferation relative to the control.

hCA II = details: stopped-flow CO2 hydrase assay, mean of three assays; cited from earlier work
hCA XII [6] = experiment: Stopped-flow CO2 hydrase inhibition assay, hCA XII; type: biochemical, human; details: ratio of KIs
Description: as §1

hCA IV [7] = experiment: Stopped-flow CO2 hydrase inhibition assay, hCA IV; type: biochemical, human; details: ratio of KIs
Description: as §1

hCA XII [8] = details: stopped-flow CO2 hydrase assay, mean of three assays; cited from earlier work
hCA I = details: stopped-flow CO2 hydrase assay, mean of three assays; cited from earlier work
MDA-MB-231 = experiment: MTT antiproliferative assay, MDA-MB-231; type: cell-based; details: Homo sapiens, normoxic conditions, 72 h
Description: (§2) These cell lines were cultured as monolayers in Dulbecco’s Modified Eagle’s Medium (DMEM) supplemented with 10% FBS, 2 mM l-glutamine, 100 U/mL penicillin, and 100 µg/mL streptomycin sulfate. […] The cells were sub-cultured using trypsin/EDTA solution, counted with a hemocytometer, and plated on 96-well plates (5000 cells/well), allowing them to form a semi-confluent monolayer overnight. […] DMSO (100 µL/well) was then added to dissolve the formazan crystals with shaking for 10 min, after which the absorb absorbance was read at 590 nm against no-cell blanks using a FLuo Star Optima microplate reader (BMG technologies, Ortenberg, Germany). Cell proliferation was calculated by comparing the OD values of the DMSO control wells with those of the samples, represented as % proliferation relative to the control.

HCT-116 [9] = experiment: MTT antiproliferative assay, HCT-116 (normoxia and CoCl2-induced hypoxia); type: cell-based, human; details: for IC50 Normoxia / IC50 Hypoxia / IC50: HCT-116; for IC50: Homo sapiens, MTT, 72 h
Description: as §2

hCA IV [10] = details: stopped-flow CO2 hydrase assay, mean of three assays; cited from earlier work
HCT-116 [11] = experiment: Annexin V-FITC/PI dual staining apoptosis assay, HCT-116; type: cell-based, human
Description: (§3) Phosphatidylserine externalization was evaluated using the Annexin V-FITC/PI apoptosis detection kit (BD Biosciences, USA), following the manufacturer’s guidelines. […] Subsequently, the cells were re-suspended in 100 μL of binding buffer with the addition of 1 μL of FITC-Annexin V, followed by a 30-min incubation at 4 °C. After rinsing in binding buffer, the cells were resuspended in 150 μL of binding buffer with the addition of 1 μL of DAPI (1 μg/μL in PBS). Flow cytometry analysis was performed using the BD FACS Canto II flow cytometer and the results were interpreted with FlowJo7.6.4 software (Tree Star, Ashland, USA).

HCT-116 [12] = experiment: Cell cycle analysis by DNA flow cytometry, HCT-116; type: cell-based, human; details: HCT-116, 24 h at IC50 concentration
Description: (§4) Following treatment, cells were washed twice with ice-cold phosphate-buffered saline (PBS). Subsequently, the treated cells were harvested through centrifugation, fixed in ice-cold 70% (v/v) ethanol, washed with PBS, re-suspended in 100 μg/mL RNase, stained with 40 μg/mL propidium iodide (PI), and subjected to flow cytometry analysis using FACS Calibur (Becton Dickinson, Franklin Lakes, NJ, USA). The cell cycle distributions were calculated using CellQuest software 5.1 (Becton Dickinson).

A549 [13] = experiment: Cell cycle analysis by DNA flow cytometry, A549; type: cell-based, human; details: A549, 24 h at IC50 concentration
Description: as §4

A549 [14] = experiment: Annexin V-FITC/PI dual staining apoptosis assay, A549; type: cell-based, human
Description: as §3

[15] = chemically induced hypoxia with CoCl2·6H2O, read-out: IC50 HCT-116 (Hypoxia)
[16] = normoxic conditions, read-out: IC50 HCT-116 (Normoxia)
[17] = HCT-116, treated at IC50 concentration
[18] = A549, treated at IC50 concentration

SMILES | H2S release half-life t/2 [2] [min] | hCA II/hCA IX selectivity ratio (hCA IX [3]) | Ki (hCA IX [4]) [µM] | IC50 (A549 [5]) [µM] | Ki (hCA II) [µM] | hCA II/hCA XII selectivity ratio (hCA XII [6]) | hCA II/hCA IV selectivity ratio (hCA IV [7]) | Ki (hCA XII [8]) [µM] | Ki (hCA I) [µM] | IC50 (MDA-MB-231) [µM] | IC50 Normoxia / IC50 Hypoxia (HCT-116 [9]) | IC50 (HCT-116 [9]; [15]) [µM] | IC50 (HCT-116 [9]; [16]) [µM] | Ki (hCA IV [10]) [µM] | other results
O=C(O)c1ccc(-c2cssc2=S)cc1 [Compound 3] | 3.1 |  |  |  |  |  |  |  |  |  |  |  |  |  | H2S release in phosphate buffer [1]: minimal H2S release; Time of peak H2S release [2]: 20 min
NS(=O)(=O)c1ccc(CCN(Cc2ccc(Br)cc2)C(=O)c2ccc(-c3cssc3=S)cc2)cc1 [Compound 22] |  | 192 | 0.0191 | 23.7 ± 1.61 | 3.66 | 284 | 104 | 0.0129 | 7.7 | 6.31 ± 0.22 | 0.6 | 11.4 ± 0.22 | 6.62 ± 0.21 |  | 
CSc1ccc(CN(CCc2ccc(S(N)(=O)=O)cc2)C(=O)c2ccc(-c3cssc3=S)cc2)cc1 [Compound 29] | 4.6 | 209 | 0.0462 | 60.9 ± 2.17 | 9.65 | 1148 | 29.3 | 0.0084 | 7.21 | 3.25 ± 0.09 | 0.8 | 12.7 ± 0.25 | 10.1 ± 0.66 | 0.404 | 
NS(=O)(=O)c1ccc(CCN(Cc2cccc3ccccc23)C(=O)c2ccc(-c3cssc3=S)cc2)cc1 [Compound 30] | 5.0 | 286 |  | 1.78 ± 0.04 | 4.46 |  | 18.3 | 0.007 | > 10 | 9.59 ± 0.31 | 2.5 | 0.93 ± 0.02 | 2.3 ± 0.14 | 0.244 | Fold increase in overall apoptosis compared to untreated control (HCT-116 [11]; HCT-116): 32.9 fold; Early Apoptosis (Lower Right %) (HCT-116 [11]; [17]): 10.23%; Late Apoptosis (Upper Right %) (HCT-116 [11]; [17]): 15.49%; Total apoptosis (HCT-116 [11]; [17]): 25.72%; %G0-G1 (HCT-116 [12]): 28.22%; %G2/M (HCT-116 [12]): 31.39%; %S (HCT-116 [12]): 18.4%; %Sub-G1 (HCT-116 [12]): 21.99%; %G0-G1 (A549 [13]): 22.93%; %G2/M (A549 [13]): 34.96%; %S (A549 [13]): 20.77%; %Sub-G1 (A549 [13]): 21.34%; Fold increase in overall apoptosis compared to untreated control (A549 [14]; A549): 19.9 fold; Early Apoptosis (Lower Right %) (A549 [14]; [18]): 5.36%; Late Apoptosis (Upper Right %) (A549 [14]; [18]): 18.59%; Total apoptosis (A549 [14]; [18]): 23.95%; Increase in cytotoxicity under hypoxia compared to normoxia (HCT-116 [9]; HCT-116, chemically induced hypoxia): 2 fold; Increase in activity concerning Staurosporine (HCT-116 [9]; HCT-116, hypoxic conditions): 10 fold; Increase in activity concerning Staurosporine (HCT-116 [9]; HCT-116, normoxic conditions): 5 fold
